Key:
[1] = molecular target: Gelatinase; assay: in vitro particle concentration fluorescence assay, inhibition of gelatinase; type: biochemical; details: pH 7.5, room temperature, read-out: Gelatinase Ki (MMP Inhibition Constants)
Experimental: (§1) Inhibitory activity is evaluated in one or more of the MMP enzymes (stromelysin, gelatinase, and collagenase) in vitro using particle concentration fluorescence assay. An inhibitor binds to MMP enzymes which prevents the degradation of a substrate by stromelysin, gelatinase, or collagenase. The substrate has attached to it a fluorescein and a biotin moiety. The intact substrate then binds to an avidin-coated particle via the biotin moiety. Once the particle is washed and dried, a fluorescent signal is generated since the fluorescent group is attached to the particle. Without an inhibitor present, the substrate is degraded by MMP enzymes and the fluorescein group is removed, therefore, no fluorescent signal can be detected. Testing compounds are dissolved in DMSO to the desired concentration, then the solutions are diluted to 1:5 with MMP buffer (50 mM Tris-HCl, pH 7.5; 150 mM NaCl; 0.02% NaN3). Serial two-fold dilutions of each compound are prepared. A concentrated, activated enzyme solution is transferred into each plate of the testing compounds, and the mixture is incubated at room temperature for 15 minutes. Thawed MMP substrate is then added into all plates, and the plates are incubated in the dark for 1-3 hours at room temperature. At this point, the substrate mixture is mixed with 0.1% avidin-coated polystyrene particles. After 15 minutes, the fluorescence values are measured following filtration and washing of the beads. Ki values are then calculated.

[2] = molecular target: Stromelysin (Homo sapiens, UniProt P08254); assay: in vitro particle concentration fluorescence assay, inhibition of stromelysin; type: biochemical; details: pH 7.5, room temperature, read-out: Stromelysin Ki (MMP Inhibition Constants)
Sequence of Stromelysin (P08254 100-477): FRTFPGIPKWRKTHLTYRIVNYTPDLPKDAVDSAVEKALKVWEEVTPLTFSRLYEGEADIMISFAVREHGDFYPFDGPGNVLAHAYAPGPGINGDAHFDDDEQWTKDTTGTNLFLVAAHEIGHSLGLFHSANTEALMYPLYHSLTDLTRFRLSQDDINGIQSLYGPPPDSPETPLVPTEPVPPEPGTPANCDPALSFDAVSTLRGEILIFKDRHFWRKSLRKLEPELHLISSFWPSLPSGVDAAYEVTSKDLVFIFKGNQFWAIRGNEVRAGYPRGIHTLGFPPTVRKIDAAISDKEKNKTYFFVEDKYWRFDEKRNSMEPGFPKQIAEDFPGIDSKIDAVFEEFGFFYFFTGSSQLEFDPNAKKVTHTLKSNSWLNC
Experimental: as §1

SMILES | Ki [1] [nM] | Ki [2] [nM]
O=C(NO)C(CS(=O)(=O)c1ccccc1)CS(=O)(=O)c1ccccc1 [Example 10, N-hydroxy-2-[(benzenesulfonyl)methyl]-3-(benzenesulfonyl)-propionamide] | 8 | 160
CCCCS(=O)(=O)CC(CS(=O)(=O)CCCC)C(=O)NO [Example 7, N-hydroxy-2-[(n-butylsulfonyl)methyl]-3-(n-butylsulfonyl)-propionamide] | 350 | 1000
O=C(NO)C(Cc1ccccc1)CS(=O)(=O)c1ccccc1 (stereo not drawn) [Example 2, N-hydroxy 2-[(benzenesulfonyl)methyl]-3-phenyl-propionamide] | 87 | 1100
O=C(NO)C(CS(=O)(=O)c1ccc(Br)cc1)CS(=O)(=O)c1ccc(Br)cc1 [Example 6, N-hydroxy-2-[(4-bromobenzenesulfonyl)methyl]-3-(4-bromobenzenesulfonyl)-propionamide] | 2.5 | 92
Cc1ccc(S(=O)(=O)CC(CS(=O)(=O)c2ccc(C)cc2)C(=O)NO)cc1 [Example 9, N-hydroxy-2-[(4-methylbenzenesulfonyl)methyl]-3-(4-methylbenzenesulfonyl)-propionamide] | 3.8 | 130
CCCCOc1ccc(S(=O)(=O)CC(CN2C(=O)CN(CCCC)C2=O)C(=O)NO)cc1 (stereo not drawn) [Example 14, N-hydroxy-2-[methyl-3-(1-butylhydantoin)]-3-(4-butoxybenzenesulfonyl)-propionamide] | 0.092 | 1.8
CC(CS(=O)(=O)c1ccccc1)C(=O)NO (stereo not drawn) [Example 3, N-hydroxy 2-[(benzenesulfonyl)methyl]-propionamide] | 81 | 3600
CCCCCCCCS(=O)(=O)CC(CS(=O)(=O)CCCCCCCC)C(=O)NO [Example 8, N-hydroxy-2-[(n-octylsulfonyl)methyl]-3-(n-octylsulfonyl)-propionamide] | 190 | 440
COc1ccc(S(=O)(=O)CC(Cc2ccccc2)C(=O)NO)cc1 (stereo not drawn) [Example 1, N-hydroxy 2-[(4-methoxybenzenesulfonyl)methyl]-3-phenyl-propionamide] | 9.2 | 49

Continued, values first:

Ki [1] [nM] | Ki [2] [nM] | SMILES
0.82 | 5.4 | CCCCCCCCS(=O)(=O)CC(CS(=O)(=O)c1ccc(OC)cc1)C(=O)NO (racemic) [Example 12, N-hydroxy-2-(n-octylsulfonylmethyl)-3-(4-methoxybenzenesulfonyl)-propionamide]
1 | 1 | COc1ccc(S(=O)(=O)CCCC(CS(=O)(=O)c2ccc(OC)cc2)C(=O)NO)cc1 (stereo not drawn) [Example 11, N-hydroxy-2-[(4-methoxybenzenesulfonyl)-methyl]-5-(4-methoxybenzenesulfonyl)-pentanamide]
0.34 | 9 | CCCCN1CC(=O)N(CC(CS(=O)(=O)c2ccc(OC)cc2)C(=O)NO)C1=O (stereo not drawn) [Example 15, N-hydroxy-2-[methyl-3-(1-butylhydantoin)]-3-(4-methoxybenzenesulfonyl)-propionamide]
0.19 | 3.9 | COc1ccc(S(=O)(=O)CC(CS(=O)(=O)c2ccc(OC)cc2)C(=O)NO)cc1 [Example 4, N-hydroxy-2-[(4-methoxybenzene-sulfonyl)methyl]-3-(4-methoxybenzenesulfonyl)-propionamide]
1.3 | 17 | COc1ccc(S(=O)(=O)CC(CN2C(=O)CN(C)C2=O)C(=O)NO)cc1 (stereo not drawn) [Example 13, N-hydroxy-2-[methyl-3-(1-methylhydantoin)]-3-(4-methoxybenzenesulfonyl)-propionamide]
1.9 | 72 | O=C(NO)C(CS(=O)(=O)c1ccc(Cl)cc1)CS(=O)(=O)c1ccc(Cl)cc1 [Example 5, N-hydroxy-2-[(4-chlorobenzenesulfonyl)methyl]-3-(4-chlorobenzenesulfonyl)-propionamide]
